# Reference: patent publication US20040071768A1, “Compositions and methods for treating cancer” (Inex Pharmaceuticals Corporation, priority 1999, published 2004)
# Assays:
# RXF393 renal xenografts = experiment: Single dose anti-tumor activity, RXF393 renal xenograft; assay type: in vivo; details: RXF-393
# Experimental: Male NCr nude mice were injected intravenously via the lateral tail vein on day 7 post-tumor-implantation with saline (♦), NVB at 45.0 mg/kg (◯) and 34.0 mg/kg (□), or NVB-TCS at 15.0 mg/kg (●) and 11.0 mg/kg (▪) at a drug-to-lipid ratio of 0.3:1 (w/w). The arrow on the x-axis denotes the day of drug administration. Data points represent mean±SEM (n=10). […]
# Tumor models investigated included RXF393 (renal), MX-1 (breast), LX-1 (small cell lung cancer), PC-3 (prostate), and HT29 (colon). These models were known to be sensitive to vinorelbine. Tumor fragments were implanted subcutaneously in the flank of NCr nu/nu mice. […] Animal weights and tumor size were determined twice weekly.
# HT29 colon xenografts = experiment: Multiple dose (q7dx3) anti-tumor activity, HT29 colon xenograft; details: HT-29; for TF (tumor free animals at the end of study): n=6
# Experimental: Female NCr nude mice were injected intravenously (q7dx3) via the lateral tail vein on days indicated by an asterisk (*). […] Drug-to-lipid ratio was 0.3/1 (w/w). Data points represent median tumor volume (n=6).
# The anti-tumor activity of multiple (q7d3) dose schedules of liposomal vinorelbine was evaluated in several human xenograft tumor models. The goal of this series of studies was to identify the benefits of encapsulation by evaluating a series of doses and determining the therapeutic index in several xenograft models. Models were selected based on the following criteria: (1) activity in the single dose studies, (2) a comprehensive literature review of vinca alkaloid efficacy, (3) a desire to include at least 2-3 models that represent the clinical use of vinorelbine, and (4) a desire to include models with a range of sensitivity to vinorelbine so that improvements resulting from the use of the liposome formulation might be identified. Based on these criteria, MX-1 and MDA-MB-435 breast models, the NCl-H460 NSCLC model and the HT-29 and DLD-1 colon models were chosen.
# Therapeutic index (TI) is a parameter that quantifies the “safety factor” of a particular therapy. TI is a ratio of a toxicity parameter and a biological activity parameter. Therefore, a higher ratio represents a greater potential margin of safety. For these studies, TI is defined as follows: […]
# The minimal effective dose (MED) was set according to NCl activity criteria as the dose resulting in an optimal % T/C of 40. This information was derived from Table 7.
# [1] = animal studies and clinical trials; cited from earlier work
# [2] = mice; cited from earlier work
smiles,measurement,setting,value
"CCC1=C[C@@H]2CN(C1)Cc1c([nH]c3ccccc13)[C@@](C(=O)OC)(c1cc3c(cc1OC)N(C)[C@H]1[C@@](O)(C(=O)OC)[C@H](OC(C)=O)[C@]4(CC)C=CCN5CC[C@]31[C@@H]54)C2 [VRL, 5′-noranhydrovinblastine]",% T/C (optimal % T/C following final treatment),RXF393 renal xenografts; single i.v. dose 34 mg/kg,−6%
same,DRD (drug related deaths),RXF393 renal xenografts; single i.v. dose 34 mg/kg,2/10
same,MWL (maximum mean weight loss per treatment group),RXF393 renal xenografts; single i.v. dose 34 mg/kg,−23.1
same,NCI Score,RXF393 renal xenografts; single i.v. dose 34 mg/kg,2
same,T-C (tumor growth delay to 1000 mm^3),RXF393 renal xenografts; single i.v. dose 34 mg/kg,22
same,TF (tumor free animals at the end of study),RXF393 renal xenografts; single i.v. dose 34 mg/kg,2/8
same,% T/C (optimal % T/C following final treatment),RXF393 renal xenografts; single i.v. dose 45 mg/kg,Toxic
same,DRD (drug related deaths),RXF393 renal xenografts; single i.v. dose 45 mg/kg,9/10
same,MWL (maximum mean weight loss per treatment group),RXF393 renal xenografts; single i.v. dose 45 mg/kg,−24.6
same,TF (tumor free animals at the end of study),RXF393 renal xenografts; single i.v. dose 45 mg/kg,0/1
same,% T/C (optimal % T/C following final treatment),HT29 colon xenografts; 5 mg/kg i.v. q7dx3,67%
same,"DRD (drug related deaths, n = 6)",HT29 colon xenografts; 5 mg/kg i.v. q7dx3,0
same,NCI Score,HT29 colon xenografts; 5 mg/kg i.v. q7dx3,0
same,T-C (tumor growth delay to 1000 mm^3),HT29 colon xenografts; 5 mg/kg i.v. q7dx3,1.32
same,TF (tumor free animals at the end of study),HT29 colon xenografts; 5 mg/kg i.v. q7dx3,0
same,% T/C (optimal % T/C following final treatment),HT29 colon xenografts; 10 mg/kg i.v. q7dx3,5%
same,"DRD (drug related deaths, n = 6)",HT29 colon xenografts; 10 mg/kg i.v. q7dx3,0
same,NCI Score,HT29 colon xenografts; 10 mg/kg i.v. q7dx3,1
same,T-C (tumor growth delay to 1000 mm^3),HT29 colon xenografts; 10 mg/kg i.v. q7dx3,11.9
same,TF (tumor free animals at the end of study),HT29 colon xenografts; 10 mg/kg i.v. q7dx3,0
same,% T/C (optimal % T/C following final treatment),HT29 colon xenografts; 20 mg/kg i.v. q7dx3,−65%
same,"DRD (drug related deaths, n = 6)",HT29 colon xenografts; 20 mg/kg i.v. q7dx3,0
same,NCI Score,HT29 colon xenografts; 20 mg/kg i.v. q7dx3,3
same,T-C (tumor growth delay to 1000 mm^3),HT29 colon xenografts; 20 mg/kg i.v. q7dx3,29.3
same,TF (tumor free animals at the end of study),HT29 colon xenografts; 20 mg/kg i.v. q7dx3,1
same,drug excreted in feces,[1],40-50%
same,drug excreted in urine,[1],~20%
same,published LD50,[2],34 mg/kg
